Residues, ends and D or L forms follow the SMILES beside them. *: point of attachment. Propanoyl(2-F) = CC(F)C(=O)*
Tests used:
[1] = system: UM-SCC-22B cells; test: Cell uptake and blocking of [18F]FP-Met-pep1; format: cell-based, human
Procedure: (§1) For cell uptake measurement, UM-SCC-22B cells were seeded into a 24-well plate at a density of 1×10^5 cells per well and incubated with 18.5 kBq (0.5 μCi)/well of [^18F]FP-Met-pep1 at 37°C for 15, 30 and 60 min. Tumor cells were then washed twice with cold PBS and harvested by adding 250 μl of 0.1 N NaOH. Internalization assay was preformed similarly to the procedure described above. After 15, 30 and 60 min incubation of UM-SCC-22B cells with [^18F]FP-Met-pep1 at 37°C, the cells were washed twice with cold PBS and then incubated for 1 min with acid-washing-buffer (50 mM glycine, 0.1 M NaCl, pH = 2.8) to remove surface bound radioactive ligand. Thereafter, the cells were washed twice with cold PBS and harvested by adding 250 μl of 0.1 N NaOH. The blocking assay was preformed similarly to the procedure described above except that the unlabeled c-Met binding peptide was added into the wells (500 μg/well) and incubated for 15 min at 37°C before adding [^18F]FP-Met-pep1. For efflux experiment, all UM-SCC-22B cells in a 24-well plate were initially incubated with 18.5 kBq (0.5 μCi)/well of [^18F]FP-Met-pep1 at 37°C for 1 hour. […] The cell suspensions were collected and measured in a gamma counter and the cell uptake, internalization and efflux were expressed as the percentage of the added dose (%AD) after decay correction to EOB. […]

[2] = system: UM-SCC-22B cells; test: Internalization assay (acid wash); format: cell-based, human; conditions: 37°C, early phase, acid wash pH 2.8
Procedure: as §1

[3] = system: UM-SCC-22B cells; test: Efflux experiment; format: cell-based, human; conditions: UM-SCC-22B cells loaded 1 h at 37°C, then serum-free DMEM
Procedure: as §1

[4] = MicroPET imaging, ROI quantification; format: in vivo, mice; conditions: male, athymic nu/nu, mouse, iv, total radioactivity, 3.7 MBq i.v., mean ± SD, n = 4
Procedure: (§2) The human head and neck squamous carcinoma (HNSCC) cell line UM-SCC-22B (obtained from the University of Michigan) was used in this study. The cells were maintained in DMEM supplemented with 10% fetal bovine serum (FBS), 1% glutamine, 100 unit/ml penicillin, and […] streptomycin (Invitrogen, CA). Subcutaneous UM-SCC-22B tumor model was established in 4 to 6 weeks old male athymic nu/nu mice (Harlan Laboratories). Typically, 5 × 10^6 cells suspended in 50 μl of PBS were injected in the right or left front shoulder. Tumor growth was followed by caliper measurements of perpendicular diameters of the tumor. The tumor volume was estimated by the formula: tumor volume = a×b^2 /2, where a and b were the tumor length and width, respectively, in millimeters. Small animal PET studies were performed when the tumor volume reached 100 to 200 mm^3.
(§3) To perform a microCT scan by a high-resolution Inveon MicroCT scanner (Siemens Medical Solutions) before microPET scan, an anesthetized nude mouse bearing UM-SCC-22B tumor was mounted on a turntable bed that could be moved automatically in the axial direction. Whole body CT acquisition parameters were as follows: voltage 70 kVp, current 400 μA, angular sampling 1° per projection for a full 360° scan, and effective pixel size 58 μm. Scan time was approximately 12 min. The image was reconstructed in real-time by a modified Feldkamp cone bean algorithm with a Shepp-Logan filter and appropriate center offset determined prior to scanning. PET scans were performed using an Inveon microPET scanner (Siemens Medical Solutions). Tumor-bearing mice were anesthetized using isoflurane/O2 (1.5–2% v/v) and intravenously injected with 3.7 MBq (100 μCi) of [^18F]FP-Met-pep1 in a volume of 100 μl saline. For blocking experiments, [^18F]FP-Met-pep1 was co-injected with 500 μg of unlabeled Met-pep1 peptide. Each group contained four mice. The images were reconstructed by a three-dimensional ordered subsets expectation maximization (3D-OSEM) algorithm with maximum a posteriori (MAP) algorithm and the frame rates were 10 × 30s, 5 × 60s, 5 × 120s and 10 × 240s, and no correction was applied for attenuation or scatter. Static images at 1 h time point were also acquired as 10-min static images for region of interest (ROI) quantification. Image analysis was done using ASI Pro VMTM software. PET/CT images were co-registered and fused automatically with ASI software. For each microPET scan, three-dimensional ROIs were drawn over the tumor, liver, kidney, and muscle on decay-corrected whole-body coronal images. The average radioactivity concentration within a tumor or an organ was obtained from mean pixel values within the ROI volume, which were converted to counts per milliliter by using a pre-determined conversion factor.

[5] = system: UM-SCC-22B tumor-bearing mice; test: MicroPET imaging, ROI quantification; format: in vivo
Procedure: as §2, §3

[6] = Ex vivo biodistribution (gamma-counting); format: in vivo, mice; conditions: male, athymic nu/nu, mouse, iv, total radioactivity, 30 min after injection, mean ± SD, n = 4
Procedure: as §2
After microPET imaging, the blood of mice bearing UM-SCC-22B tumor xenografts was drawn from the orbital sinus, then mice were sacrificed by cervical dislocation and selected organs were excised. Blood, tumor, and major organs tissues were collected and weighed (wet weight). The radioactivity in each tissue was measured using a gamma-counter (Packard Instrument). Distribution of activity was calculated as percentage of injected dose per gram of organ (%ID/g). For each mouse, the radioactivity of the tissue samples was calibrated against a known aliquot of the injected dose and normalized to a body mass of 30 g. Values were expressed as mean ± SD for a group of four animals.

With `CC(C)C[C@H](NC(=O)[C@@H](N)Cc1ccc(O)cc1)C(=O)N[C@@H](Cc1ccccc1)C(=O)N[C@@H](CO)C(=O)N[C@H](C(=O)N[C@@H](Cc1c[nH]cn1)C(=O)N[C@@H](Cc1c[nH]c2ccccc12)C(=O)N1CCC[C@H]1C(=O)N1CCC[C@H]1C(=O)N[C@@H](CC(C)C)C(=O)N[C@@H](CCCCNC(=O)C(C)F)C(=O)N[C@@H](C)C(=O)O)C(C)C` (some centres unmarked) [[^18F]FP-Met-pep1] (H-YLFSVHWPPLK(Propanoyl(2-F))A-OH) the “cell uptake in presence of unlabeled Met-pep1 (blocking)” value ([1]; 500 μg/well unlabeled Met-pep1 pre-incubated 15 min at 37°C) was “dramatic inhibition of cell uptake”, the “cell uptake (percentage of added dose)” value ([1]; 18.5 kBq (0.5 μCi)/well, 37°C, 30 min incubation (peak), gamma counter, mean ± SD, triplicate wells) was 34.52 ± 1.34% and the “fraction of observed uptake due to internalization” value [2] was “Approximately 2/3”. The “tracer effluxed out of the cells” value ([3]; 15 min) was “approximately 47%”, the “radiotracer remained bound with the cells” value ([3]; end of incubation (60 min)) was “about 36%” and the tissue uptake at 0.5 h ([4]; liver, 30 min post-injection, read-out: liver uptake (microPET)) was 11.5 ± 0.78 %ID/g. For the same compound, the tissue uptake at 0.5 h ([4]; tumor (UM-SCC-22B xenograft), UM-SCC-22B tumor, 30 min post injection, read-out: tumor uptake (microPET)) was 4.72 ± 0.67 %ID/g, the tissue uptake at 1 h ([4]; tumor (UM-SCC-22B xenograft), UM-SCC-22B tumor, 60 min post injection) was 3.83 ± 0.55 %ID/g and the tissue uptake at 2 h ([4]; tumor (UM-SCC-22B xenograft), UM-SCC-22B tumor, 120 min post injection) was 3.11 ± 0.25 %ID/g. For the same compound, the “muscle uptake (microPET)” value ([5]; all timepoints (30, 60, 120 min)) was “very low uptake”, the “radioactivity excreted, primarily through the renal pathway” value ([5]; within 2 h after injection, dynamic microPET (S1 Fig)) was “about 65%” and the tissue uptake at 0.5 h ([6]; blood, 3.7 MBq, without blocking, read-out: blood tracer concentration) was 1.55 ± 0.48 %ID/g. It also gave a tissue uptake at 0.5 h ([6]; blood, with 500 μg unlabeled peptide, read-out: blood tracer concentration, after blocking) of 2.85 ± 0.76 %ID/g, a tissue uptake at 0.5 h ([6]; kidney, 3.7 MBq, blocking state not clearly stated, read-out: kidney tracer accumulation (ex vivo)) of 10.5 ± 0.53 %ID/g and a tissue uptake at 0.5 h ([6]; liver, 3.7 MBq, blocking state not clearly stated, read-out: liver tracer accumulation (ex vivo)) of 5.58 ± 0.45 %ID/g. It also gave a tissue uptake at 0.5 h ([6]; tumor (UM-SCC-22B xenograft), 3.7 MBq, absence of unlabeled peptide, read-out: tumor uptake (tissue sampling, gamma-counting)) of 4.58 ± 0.59 %ID/g and a tissue uptake at 0.5 h ([6]; tumor (UM-SCC-22B xenograft), presence of 500 μg unlabeled peptide, read-out: tumor uptake (tissue sampling, gamma-counting), blocked) of 0.88 ± 0.35 %ID/g.
